Source: patent US12195432B2, “2-arylbenzimidazoles as Ppargc1a activators for treating neurodegenerative diseases” (THE BOARD OF TRUSTEES OF THE LELAND STANFORD JUNIOR …, priority 2018, dated 2025)

Legend:
[1] = system: TNF-α production by BV2 cells or PBMC; assay: Cellular assay to measure TNF-α inhibition (LPS stimulation, ELISA); format: cell-based, murine or human; conditions: 100 ng/ml LPS over 24 hours, relative to DMSO vehicle, compound concentration and cell type not given
Description: Oxidative metabolism exerts an anti-inflammatory effect on myeloid cell phenotype (O'Neill L A, Front Immunol. 2014) and Ppargc1a can promote this energy metabolic pathway (Spiegelman B M, Novartis Found Symp. 2007). Thus, pharmacological activation of Ppargc1a would be expected to inhibit the inflammatory response of myeloid cells. This phenomenon can be measured in cultures by a TNF-α inhibition assay.
Cellular Assay Protocol to Measure TNF-α Inhibition
The murine myeloid cell line BV2 or human peripheral blood mononuclear cells (PBMC) are cultured in RPMI 1640 media (Cat #11875119, Gibco) supplemented with 10% fetal bovine serum and 1% L-glutamine 1% penicillin. These cells are then stimulated with 100 ng/ml of lipopolysaccharide (LPS, O111:B4, Cat #L2630, Sigma) over 24 hours. LPS stimulation results in the secretion of the inflammatory cytokine TNF-α by BV2 cells or PBMC, which can be quantified by ELISA in culture supernatant samples per manufacturer's protocol (Cat #558273 for BV2 and Cat #558299 for PBMC, BD Biosciences). To determine whether example compounds 1-78 inhibit TNF-α production by BV2 cells or PBMC, the cells were cultured in the presence of the compounds at different concentrations, and fold reduction in TNF-α production relative to TNF-α production by the same cells cultured in the presence of dimethylsulfoxide (as vehicle control) was determined.

[2] = Pharmacokinetic study (mouse): API levels in plasma, brain and liver; format: in vivo; conditions: mice, prodrug 10 mg/kg p.o., 0.5 h-4 h, API = example 1 compound; for plasma levels of API: FIG. 1; for brain levels of API: FIG. 2; for liver levels of API: FIG. 3
Protocol: Pharmacokinetic studies (mouse) were performed on the example 1, 6-P, 8-P, and 11-P compounds of the present invention. The example 1, 6-P, 8-P, and 11-P compounds were dosed in mice at 10 mg/kg p.o. (n=2). Plasma, brain, and liver were harvested at 0.5 h, 1 h, 2 h, and 4 h. The samples were analyzed by LCMS to determine levels of the example 1 compound, i.e., the active pharmaceutical ingredient (API) for prodrug examples 6-P, 8-P, and 11-P.

Caco-2 cells = assay: Caco-2 permeability assay; format: in vitro ADME; conditions: 10 μM, pH 7.4, 2 h; for Caco2 A → B: apparent permeability A→B, without elacridar
Protocol: Caco-2 Permeability Assay Protocol
The mixture was analyzed by LC-MS/MS.

SMILES	TNFα Inhibition [1]	plasma levels of API [2]	brain levels of API [2]	liver levels of API [2]	other results
CC(C)(C)c1ccc(-c2nc3ccccc3[nH]2)cc1 [Example 1, 2-(4-(tert-Butyl)phenyl)-1H-benzo[d]imidazole]	A (A = >80% inh.)				
CC(C)(C)c1ccc(-c2nc3ccccc3n2COC(=O)CCC(=O)O)cc1 [Example 6-P, 4-((2-(4-(tert-Butyl)phenyl)-1H-benzo[d]imidazol-1-yl)methoxy)-4-oxobutanoic acid]		measurable amounts	measurable amounts	measurable amounts	
Clc1ccc(-c2nc3ccccc3[nH]2)cc1 [Example 8, 2-(4-Chlorophenyl)-1H-benzo[d]imidazole]	C (C = <50% inh.)				
CC(C)(C)c1ccc(-c2nc3ccccc3n2COC(=O)c2ccc(CN)cc2)cc1.Cl [Example 8-P, (4-(((2-(4-(tert-butyl)phenyl)-1H-benzo[d]imidazol-1-yl)methoxy)carbonyl)-phenyl)methylammonium hydrochloride]		measurable amounts	measurable amounts	measurable amounts	
CC(C)(C)c1ccc(-c2nc3ccccc3n2COP(=O)([O-])[O-])cc1.[Na+].[Na+] [Example 11-P, Disodium ((2-(4-(tert-butyl)phenyl)-1H-benzo[d]imidazol-1-yl)methyl) phosphate]		measurable amounts	measurable amounts	measurable amounts	
c1ccc(-c2nc3ccccc3[nH]2)cc1 [Example 14, 2-(Phenyl)-1H-benzo[d]imidazole]	C (C = <50% inh.)				
CC(C)(C)c1ccc(-c2nc3cc(C(F)(F)F)ccc3[nH]2)cc1 [Example 42, (4-tert-Butylphenyl)-5-(trifluoromethyl)-1H-benzo[d]imidazole]					Caco2 B → A (Caco-2 cells; apparent permeability B→A): 1.2 nm/s
CC(C)(C)c1cccc(-c2nc3ccccc3[nH]2)c1 [Example 58, 2-(3-tert-Butylphenyl)-1H-benzo[d]imidazole]					Caco2 A → B (Caco-2 cells): 21 nm/s
CC(C)(C)c1ccc(-c2nc3cc(C(N)=O)ccc3[nH]2)cc1 [Example 75, 2-(4-tert-Butylphenyl)-1H-benzo[d]imidazol-5-carboxamide]					Caco2 A → B (Caco-2 cells): 16 nm/s
